Results as given in patent US10501516B2, “Peptide compound” (TAKEDA PHARMACEUTICAL COMPANY LIMITED, priority 2016, dated 2019).
Square brackets hold non-standard residues; d marks the D form. Side chains are listed from the residue outwards. Peptide text beside a SMILES is read from it. * marks the point of attachment. C18 diacid = O=C(O)CCCCCCCCCCCCCCCCC(=O)*; NMeY = CN[C@@H](Cc1ccc(O)cc1)C(=O)O; Palmitoyl = CCCCCCCCCCCCCCCC(=O)*; αMeF = C[C@](N)(Cc1ccccc1)C(=O)O; Iva = CC[C@](C)(N)C(=O)O; Aib = CC(C)(N)C(=O)O

How the values were obtained:
male C57BL/6J mouse = experiment: Evaluation of feeding suppressive action in mice; type: in vivo; settings: 30 nmol/kg s.c. once a day for 3 days; 3-days cumulative food consumption vs solvent control
In short: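 Male C57BL/6J mice, 8-9 weeks, ad libitum fed, given compound (30 or 100 nmol/2 mL in 10% DMSO saline) s.c. at 2 mL/kg once daily for 3 days. Cumulative 3-day food consumption measured by weighing; suppression rate (%) calculated relative to vehicle controls.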

human NPY2R = molecular target: T1, human NPY2R (Homo sapiens, UniProt P49146); experiment: Reporter assay of human NPY2R gene (agonist activity, decrease in intracellular cAMP as index); type: cell-based; settings: Cre-luc reporter, hNPY2R CHO-K1 cells, forskolin 1.2 μM, 4 hours; read-out: Agonist activity (EC50) hY2R
T1 construct: expressed in transfected cells; host or cells: CHO-K1 Cre-luc reporter cells (pAKKO1114/hNPY2R#481 No. 88 cells)
T1 sequence (P49146 1-381): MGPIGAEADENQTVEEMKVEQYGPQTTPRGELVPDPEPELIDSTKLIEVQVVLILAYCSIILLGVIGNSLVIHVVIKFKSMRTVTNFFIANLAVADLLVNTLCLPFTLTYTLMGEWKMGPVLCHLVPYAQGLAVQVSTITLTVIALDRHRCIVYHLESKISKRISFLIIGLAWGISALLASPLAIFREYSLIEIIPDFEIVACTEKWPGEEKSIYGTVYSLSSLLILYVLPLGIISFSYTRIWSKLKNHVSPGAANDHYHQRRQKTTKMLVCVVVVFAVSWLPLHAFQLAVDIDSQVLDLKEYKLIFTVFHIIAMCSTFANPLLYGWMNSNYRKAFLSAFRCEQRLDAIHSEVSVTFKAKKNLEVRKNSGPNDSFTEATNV
Description: Evaluation of Agonist Activity Against Human NPY2R, Human GIPR, and Human GLP-1R Using Change in Intracellular cAMP Concentration as Index
The human NPY2R gene having a sequence identical to the sequence of GenBank Accession No. AC104407 was cloned into pAKKO1114 vector to prepare hNPY2R/pAKKO1114. Next, pGL4.29 (Promega) was introduced to CHO-K1 cells, which were then screened with hygromycin to construct Cre-luc reporter cells. These cells were cotransfected with hNPY2R/pAKKO1114 and pcDNA3.1 (Life Technologies Corp.), and the cells were screened with geneticin. Next, a cell line induced to express luciferase, i.e., pAKKO1114/hNPY2R#481 No. 88 cells, were selected from the obtained transformants by the addition of human PYY (3-36).
The pAKKO1114/hNPY2R#481 No. 88 cells were inoculated at a cell density of 25 μL/well (5,000 cells/well) to a 384-well white plate (Corning, 3570), and cultured overnight in Ham F12 medium containing 10% fetal bovine serum, 100 U/mL penicillin and 100 μg/mL streptomycin in a CO2 incubator of 37° C. On the next day, the medium was removed, and an assay medium (Ham F12 medium containing 0.1% BSA, 100 U/mL penicillin and 100 μg/mL streptomycin) containing forskolin (final concentration: 1.2 μM) was added at a concentration of 25 μL/well to the cells. Next, an assay medium containing a test compound was added at a concentration of 5 μL/well to the cells, and the resultant cells were incubated for 4 hours in a CO2 incubator of 37° C. to give the final concentration of 1 μM. SteadyGlo (Promega) was added thereto at a concentration of 30 μL/well, and the mixture was left standing for 20 minutes with light shielded. The luciferase activity was measured using a plate reader Envision (PerkinElmer). The luciferase activity from the addition of DMSO was defined as 100%, and the luciferase activity from the addition of 1 μM human PYY(3-36) instead of the test compound was defined as 0%. The NPY2R agonist activity was calculated with a decrease in intracellular cAMP concentration as an index.

human GIPR = molecular target: T2, human GIPR (Homo sapiens, UniProt P48546); experiment: Reporter assay of human GIPR gene (agonist activity, intracellular cAMP as index); type: cell-based; settings: Cre-luc reporter, hGIPR/CHO-K1 cells, 4 hours
T2 construct: expressed in transfected cells; host or cells: CHO-K1 Cre-luc reporter cells (hGIPR/CHO-K1, also called hGIPR/CRE-LUC/CHO-K1)
T2 sequence (P48546 22-466): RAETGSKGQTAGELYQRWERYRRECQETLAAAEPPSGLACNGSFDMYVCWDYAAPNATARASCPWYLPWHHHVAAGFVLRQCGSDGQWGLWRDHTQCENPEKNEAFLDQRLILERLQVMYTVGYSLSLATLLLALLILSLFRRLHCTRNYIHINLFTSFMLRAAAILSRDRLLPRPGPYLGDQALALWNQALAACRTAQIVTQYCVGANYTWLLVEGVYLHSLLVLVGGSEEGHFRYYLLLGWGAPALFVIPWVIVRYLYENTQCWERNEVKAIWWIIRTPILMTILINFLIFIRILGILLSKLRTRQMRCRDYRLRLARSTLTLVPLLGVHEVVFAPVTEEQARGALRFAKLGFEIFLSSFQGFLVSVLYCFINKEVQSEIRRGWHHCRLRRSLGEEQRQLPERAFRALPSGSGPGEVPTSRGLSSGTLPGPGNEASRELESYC

EC50 (human NPY2R) | EC50 (human GIPR) | SMILES | Rate of feeding suppression (%) (male C57BL/6J mouse)
0.1 nM | 0.068 nM | CCCCCCCCCCCCCCCC(=O)NCC(=O)NCC(=O)NCC(=O)NCC(=O)NCCCC[C@H](NC(=O)[C@H](CC(=O)O)NC(=O)[C@H](CO)NC(=O)[C@@H](NC(=O)[C@](C)(Cc1ccccc1)NC(=O)[C@@H](NC(=O)CNC(=O)[C@H](CCC(=O)O)NC(=O)C(C)(C)NC(=O)[C@@H](N)Cc1ccc(O)cc1)[C@@H](C)O)[C@@H](C)O)C(=O)NC(C)(C)C(=O)N[C@H](C(=O)NC(C)(C)C(=O)N[C@@H](CC(C)C)C(=O)N[C@@H](CC(=O)O)C(=O)N[C@@H](CCCCN)C(=O)N[C@@H](CCC(N)=O)C(=O)N[C@@H](CCCNC(=N)N)C(=O)N[C@@H](CCC(N)=O)C(=O)N[C@@](C)(CC)C(=O)N[C@@H](CCC(=O)O)C(=O)N[C@@H](Cc1ccccc1)C(=O)N[C@H](C(=O)N[C@@H](CCCNC(=N)N)C(=O)N[C@@H](Cc1c[nH]cn1)C(=O)N[C@@H](CC(C)C)C(=O)N[C@@H](CC(C)C)C(=O)N[C@@H](CC(N)=O)C(=O)N[C@@H](CCCCN)C(=O)NC(C)(C)C(=O)N[C@H](C(=O)N[C@@H](CCCNC(=N)N)C(=O)N[C@@H](CCC(N)=O)C(=O)N[C@@H](CCCNC(=N)N)C(=O)N[C@@H](Cc1ccc(O)cc1)C(N)=O)[C@@H](C)O)C(C)C)[C@@H](C)CC [Example 7] (H-Y[Aib]EGT[αMeF]TSDK([Gly-Gly-Gly-Gly-Palmitoyl])[Aib]I[Aib]LDKQRQ[Iva]EFVRHLLNK[Aib]TRQRY-NH2) | −37.6%
0.1 nM | 0.074 nM | CCCCCCCCCCCCCCCC(=O)NCC(=O)NCC(=O)NCC(=O)NCC(=O)NCCCC[C@H](NC(=O)[C@H](CC(=O)O)NC(=O)[C@H](CO)NC(=O)[C@@H](NC(=O)[C@](C)(Cc1ccccc1)NC(=O)[C@@H](NC(=O)CNC(=O)[C@H](CCC(=O)O)NC(=O)C(C)(C)NC(=O)[C@H](Cc1ccc(O)cc1)NC)[C@@H](C)O)[C@@H](C)O)C(=O)N[C@@H](C)C(=O)N[C@H](C(=O)NC(C)(C)C(=O)N[C@@H](CC(C)C)C(=O)N[C@@H](CC(=O)O)C(=O)N[C@@H](CCCCN)C(=O)N[C@@H](CCC(N)=O)C(=O)N[C@@H](CCCNC(=N)N)C(=O)N[C@@H](CCC(N)=O)C(=O)N[C@@](C)(CC)C(=O)N[C@@H](CCC(=O)O)C(=O)N[C@@H](Cc1ccccc1)C(=O)N[C@H](C(=O)N[C@@H](CCCNC(=N)N)C(=O)N[C@@H](Cc1c[nH]cn1)C(=O)N[C@@H](CC(C)C)C(=O)N[C@@H](CC(C)C)C(=O)N[C@@H](CC(N)=O)C(=O)N[C@@H](CCCCN)C(=O)NC(C)(C)C(=O)N[C@H](C(=O)N[C@@H](CCCNC(=N)N)C(=O)N[C@@H](CCC(N)=O)C(=O)N[C@@H](CCCNC(=N)N)C(=O)N[C@@H](Cc1ccc(O)cc1)C(N)=O)[C@@H](C)O)C(C)C)[C@@H](C)CC [Example 13] (H-[NMeY][Aib]EGT[αMeF]TSDK([Gly-Gly-Gly-Gly-Palmitoyl])AI[Aib]LDKQRQ[Iva]EFVRHLLNK[Aib]TRQRY-NH2) | −41.0%
2.4 nM | 0.074 nM | CC[C@H](C)[C@H](NC(=O)C(C)(C)NC(=O)[C@H](CCCCNC(=O)CNC(=O)CNC(=O)CNC(=O)CNC(=O)CCCCCCCCCCCCCCCCC(=O)O)NC(=O)[C@H](CC(=O)O)NC(=O)[C@H](CO)NC(=O)[C@@H](NC(=O)[C@](C)(Cc1ccccc1)NC(=O)[C@@H](NC(=O)CNC(=O)[C@H](CCC(=O)O)NC(=O)C(C)(C)NC(=O)[C@@H](N)Cc1ccc(O)cc1)[C@@H](C)O)[C@@H](C)O)C(=O)NC(C)(C)C(=O)N[C@@H](CC(C)C)C(=O)N[C@@H](CC(=O)O)C(=O)N[C@@H](CCCCN)C(=O)N[C@@H](CCC(N)=O)C(=O)N[C@@H](C)C(=O)N[C@@H](CCC(N)=O)C(=O)N[C@@](C)(CC)C(=O)N[C@@H](CCC(=O)O)C(=O)N[C@@H](Cc1ccccc1)C(=O)N[C@H](C(=O)N[C@@H](CCCNC(=N)N)C(=O)N[C@@H](Cc1c[nH]cn1)C(=O)N[C@@H](CC(C)C)C(=O)N[C@@H](CC(C)C)C(=O)N[C@@H](CC(N)=O)C(=O)N[C@@H](CCCCN)C(=O)NC(C)(C)C(=O)N[C@H](C(=O)N[C@@H](CCCNC(=N)N)C(=O)N[C@@H](CCC(N)=O)C(=O)N[C@@H](CCCNC(=N)N)C(=O)N[C@@H](Cc1ccc(O)cc1)C(N)=O)[C@@H](C)O)C(C)C [Example 28] (H-Y[Aib]EGT[αMeF]TSDK([Gly-Gly-Gly-Gly-C18 diacid])[Aib]I[Aib]LDKQAQ[Iva]EFVRHLLNK[Aib]TRQRY-NH2) | 
